Test results taken from US11590139B2, “Substituted aminopurine compounds, compositions thereof, and methods of treatment therewith” (Signal Pharmaceuticals, LLC, priority 2014, dated 2023).

These molecules were tested on Lox-IMVI melanoma cell line (assay: Lox-IMVI anti-proliferative assay (growth inhibition, Cell Titer-Glo)). Conditions: Homo sapiens; IC50 activity level in the cell-based Lox-IMVI anti-proliferative assay; read-out: Activity.
Format: cell-based, human
Summary of the method: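 RPMI/10% FBS; cmpd 0.5 nM–10 μM, 3-fold ×10, duplicate, 0.2% DMSO final; 72 h, 37 °C, 5% CO2. ATP-luminescence readout at t0 and 72 h. IC50 = 50% of DMSO control, 4-parameter logistic fit.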
For `NC(=O)[C@H]1CC[C@@H](n2c(Nc3c(F)cc(Cl)cc3Cl)nc3cnc(NC4CCOCC4)nc32)CC1` [Example 40], the IC50 was under 0.25 µM.
In the case of `NC(=O)[C@H]1CC[C@@H](n2c(Nc3c(F)ccc(Cl)c3F)nc3cnc(N[C@@H]4CC[C@@H](O)C4)nc32)CC1` [Example 217, (1S,4s)-4-(8-(3-chloro-2,6-difluorophenylamino)-2-((1R,3R)-3-hydroxycyclopentylamino)-9H-purin-9-yl)cyclohexanecarboxamide], the IC50 is reported as over 1 µM.
Work on `NC(=O)[C@H]1CC[C@@H](n2c(Nc3cc(F)c(Cl)cc3F)nc3cnc(N[C@@H]4CCC[C@H](O)C4)nc32)CC1` [Example 363, (1S,4s)-4-(8-(4-chloro-2,5-difluorophenylamino)-2-((1R,3S)-3-hydroxycyclohexylamino)-9H-purin-9-yl)cyclohexanecarboxamide] yielded an IC50 of over 1 µM.
Work on `NC(=O)[C@H]1CC[C@@H](n2c(Nc3c(F)cc(Cl)cc3Cl)nc3cnc(NC4CC(F)(F)C4)nc32)CC1` [Example 230, (1s,4s)-4-(8-(2,4-dichloro-6-fluorophenylamino)-2-(3,3-difluorocyclobutylamino)-9H-purin-9-yl)cyclohexanecarboxamide] yielded an IC50 of 0.25 to 0.5 µM.
Molecule `NC(=O)[C@H]1CC[C@@H](n2c(Nc3c(Cl)cc(Cl)cc3Cl)nc3cnc(N[C@@H]4CCC[C@H](O)C4)nc32)CC1` [Example 353, (1S,4s)-4-(2-((1R,3S)-3-hydroxycyclohexylamino)-8-(2,4,6-trichlorophenylamino)-9H-purin-9-yl)cyclohexanecarboxamide] has an IC50 of 0.25 to 0.5 µM.
Work on `NC(=O)[C@H]1CC[C@@H](n2c(Nc3c(Cl)cccc3Cl)nc3cnc(NC4CCC4)nc32)CC1` [Example 51] yielded an IC50 of 0.5 to 1 µM.
`CC[C@@H](CO)Nc1ncc2nc(Nc3c(F)cccc3Cl)n([C@H]3CC[C@@H](C(N)=O)CC3)c2n1` [Example 144, (1R,4s)-4-(8-(2-chloro-6-fluorophenylamino)-2-((S)-1-hydroxybutan-2-ylamino)-9H-purin-9-yl)cyclohexanecarboxamide] was tested, and the IC50 was over 1 µM.
Work on `NC(=O)[C@H]1CC[C@@H](n2c(Nc3c(F)cc(F)cc3Cl)nc3cnc(N[C@@H]4CCC[C@H]4O)nc32)CC1` [Example 252, (1S,4s)-4-(8-(2-chloro-4,6-difluorophenylamino)-2-((1R,2R)-2-hydroxycyclopentylamino)-9H-purin-9-yl)cyclohexanecarboxamide] yielded an IC50 of over 1 µM.
With `C[C@@H](CO)Nc1ncc2nc(Nc3c(F)cc(F)cc3F)n([C@H]3CC[C@@H](C(N)=O)CC3)c2n1` [Example 164, (1R,4s)-4-(2-((S)-1-hydroxypropan-2-ylamino)-8-(2,4,6-trifluorophenylamino)-9H-purin-9-yl)cyclohexanecarboxamide] the IC50 was over 1 µM.
Molecule `Cc1cc(F)c(Nc2nc3cnc(NC4CCOCC4)nc3n2[C@H]2CC[C@@H](C(N)=O)CC2)c(F)c1` [Example 115, (1s,4s)-4-(8-(2,6-difluoro-4-methylphenylamino)-2-(tetrahydro-2H-pyran-4-ylamino)-9H-purin-9-yl)cyclohexanecarboxamide] has an IC50 of 0.5 to 1 µM.
Molecule `NC(=O)[C@H]1CC[C@@H](n2c(Nc3ccc(Cl)c(F)c3F)nc3cnc(N[C@H]4C[C@H](O)C4)nc32)CC1` [Example 285, (1s,4s)-4-(8-(4-chloro-2,3-difluorophenylamino)-2-((1R,3r)-3-hydroxycyclobutylamino)-9H-purin-9-yl)cyclohexanecarboxamide] has an IC50 of over 1 µM.
Molecule `CC[C@H](CO)Nc1ncc2nc(Nc3c(Cl)cc(F)cc3Cl)n([C@H]3CC[C@@H](C(N)=O)CC3)c2n1` [Example 126, (1S,4s)-4-(8-(2,6-dichloro-4-fluorophenylamino)-2-((R)-1-hydroxybutan-2-ylamino)-9H-purin-9-yl)cyclohexanecarboxamide] has an IC50 of over 1 µM.
Molecule `NC(=O)[C@H]1CC[C@@H](n2c(Nc3c(F)cc(F)cc3Cl)nc3cnc(NC4CCC(F)(F)CC4)nc32)CC1` [Example 185, (1s,4s)-4-(8-(2-chloro-4,6-difluorophenylamino)-2-(4,4-difluorocyclohexylamino)-9H-purin-9-yl)cyclohexanecarboxamide] has an IC50 of under 0.25 µM.
With `NC(=O)[C@H]1CC[C@@H](n2c(Nc3ccc(Cl)c(F)c3F)nc3cnc(N[C@H]4COC[C@@H]4O)nc32)CC1` [Example 317, (1R,4s)-4-(8-(4-chloro-2,3-difluorophenylamino)-2-((3S,4R)-4-hydroxytetrahydrofuran-3-ylamino)-9H-purin-9-yl)cyclohexanecarboxamide] the IC50 was 0.5 to 1 µM.
Molecule `NC(=O)[C@H]1CC[C@@H](n2c(Nc3c(Cl)cccc3Cl)nc3cnc(N[C@H]4C[C@H](O)C4)nc32)CC1` [Example 280, (1s,4s)-4-(8-(2,6-dichlorophenylamino)-2-((1r,3r)-3-hydroxycyclobutylamino)-9H-purin-9-yl)cyclohexanecarboxamide] has an IC50 of over 1 µM.
Molecule `N#Cc1ccc(Nc2nc3cnc(NC4CCOCC4)nc3n2[C@H]2CC[C@@H](C(N)=O)CC2)c(F)c1F` [Example 379, (1s,4s)-4-(8-(4-cyano-2,3-difluorophenylamino)-2-(tetrahydro-2H-pyran-4-ylamino)-9H-purin-9-yl)cyclohexanecarboxamide] has an IC50 of over 1 µM.

Same assay, conditions: Homo sapiens; Lox-IMVI anti-proliferative assay, IC50 activity level; read-out: Activity
With `C[C@]1(C(N)=O)CC[C@@H](n2c(Nc3c(Cl)cc(C#N)cc3Cl)nc3cnc(NC4CCCC4)nc32)CC1` [Example 561, (1s,4s)-4-(2-(cyclopentylamino)-8-(2,6-dichloro-4-cyanophenylamino)-9H-purin-9-yl)-1-methylcyclohexanecarboxamide] the IC50 was under 0.25 µM.
With `C[C@]1(C(N)=O)CC[C@H](n2c(Nc3c(F)cc(Cl)cc3Cl)nc3cnc(N[C@@H]4CCC[C@H](O)C4)nc32)CC1` [Example 484, (1R,4r)-4-(8-(2,4-dichloro-6-fluorophenylamino)-2-((1R,3S)-3-hydroxycyclohexylamino)-9H-purin-9-yl)-1-methylcyclohexanecarboxamide] the IC50 was over 1 µM.
`NC(=O)[C@H]1CC[C@@H](n2c(Nc3c(Cl)cc(Cl)cc3Cl)nc3cnc(N[C@@H]4CCCC[C@@H]4O)nc32)CC1` [Example 483, (1S,4s)-4-(2-((1R,2S)-2-hydroxycyclohexylamino)-8-(2,4,6-trichlorophenylamino)-9H-purin-9-yl)cyclohexanecarboxamide] was tested, and the IC50 was over 1 µM.
`NC(=O)[C@H]1CC[C@@H](n2c(Nc3c(F)cccc3Cl)nc3cnc(N[C@@H]4CCCC[C@H](O)C4)nc32)CC1` [Example 436, (1S,4s)-4-(8-(2-chloro-6-fluorophenylamino)-2-((1R,3S)-3-hydroxycycloheptylamino)-9H-purin-9-yl)cyclohexanecarboxamide] gave an IC50 of over 1 µM.
Work on `C[C@H]1COCC[C@@H]1Nc1ncc2nc(Nc3c(F)cc(F)cc3F)n([C@H]3CC[C@@H](C(N)=O)CC3)c2n1` [Example 510, (1R,4s)-4-(2-((3R,4S)-3-methyltetrahydro-2H-pyran-4-ylamino)-8-(2,4,6-trifluorophenylamino)-9H-purin-9-yl)cyclohexanecarboxamide] yielded an IC50 of over 1 µM.

Same assay, conditions: Homo sapiens; Lox-IMVI melanoma cell line, anti-proliferative assay; read-out: Activity (IC50 activity level)
`NC(=O)[C@H]1CC[C@@H](n2c(Nc3c(F)cc(F)cc3Cl)nc3cnc(N[C@@H]4CCCN(C(=O)Nc5ccccc5)C4)nc32)CC1` [Example 778, (R)-3-(9-((1s,4S)-4-carbamoylcyclohexyl)-8-(2-chloro-4,6-difluorophenylamino)-9H-purin-2-ylamino)-N-phenylpiperidine-1-carboxamide] showed an IC50 of over 1 µM.
`NC(=O)[C@H]1CC[C@@H](n2c(Nc3c(F)cc(Cl)cc3Cl)nc3cnc(NC[C@@H]4CCCC[C@H]4O)nc32)CC1` [Example 662, (1R,4s)-4-(8-(2,4-dichloro-6-fluorophenylamino)-2-(((1S,2R)-2-hydroxycyclohexyl)methylamino)-9H-purin-9-yl)cyclohexanecarboxamide] was tested, and the IC50 was over 1 µM.
In the case of `C[C@]1(C(N)=O)CC[C@@H](n2c(Nc3c(F)cc(Cl)cc3Cl)nc3cnc(N[C@H]4CCC[C@@H](O)C4)nc32)CC1` [Example 628, (1R,4s)-4-(8-(2,4-dichloro-6-fluorophenylamino)-2-((1S,3R)-3-hydroxycyclohexylamino)-9H-purin-9-yl)-1-methylcyclohexanecarboxamide], the IC50 is reported as under 0.25 µM.
With `NC(=O)[C@H]1CC[C@@H](n2c(Nc3c(F)cc(Cl)cc3Cl)nc3cnc(N[C@@H]4CCOC[C@H]4F)nc32)CC1` [Example 728, (1S,4s)-4-(8-(2,4-dichloro-6-fluorophenylamino)-2-((3S,4R)-3-fluorotetrahydro-2H-pyran-4-ylamino)-9H-purin-9-yl)cyclohexanecarboxamide] the IC50 was under 0.25 µM.
`CC1(C)COCC[C@H]1Nc1ncc2nc(Nc3c(F)cc(Cl)cc3F)n([C@H]3CC[C@@H](C(N)=O)CC3)c2n1` [Example 786, (1S,4s)-4-(8-(4-chloro-2,6-difluorophenylamino)-2-((R)-3,3-dimethyltetrahydro-2H-pyran-4-ylamino)-9H-purin-9-yl)cyclohexanecarboxamide] showed an IC50 of over 1 µM.
`N#Cc1cc(F)c(Nc2nc3cnc(N[C@@H]4CCCN(Cc5ccccc5)C4)nc3n2[C@H]2CC[C@@H](C(N)=O)CC2)c(F)c1` [Example 755, (1S,4s)-4-(2-((R)-1-benzylpiperidin-3-ylamino)-8-(4-cyano-2,6-difluorophenylamino)-9H-purin-9-yl)cyclohexanecarboxamide] showed an IC50 of over 1 µM.
`Cc1ccc(S(=O)(=O)N2CCC[C@@H](Nc3ncc4nc(Nc5c(F)cc(Cl)cc5Cl)n([C@H]5CC[C@@H](C(N)=O)CC5)c4n3)C2)cc1` [Example 793, (1S,4s)-4-(8-(2,4-dichloro-6-fluorophenylamino)-2-((R)-1-tosylpiperidin-3-ylamino)-9H-purin-9-yl)cyclohexanecarboxamide] showed an IC50 of over 1 µM.
Molecule `N#Cc1cc(F)c(Nc2nc3cnc(N[C@@H]4CCC(F)(F)C4)nc3n2[C@H]2CC[C@@H](C(N)=O)CC2)c(Cl)c1` [Example 698, (1S,4s)-4-(8-(2-chloro-4-cyano-6-fluorophenylamino)-2-((R)-3,3-difluorocyclopentylamino)-9H-purin-9-yl)cyclohexanecarboxamide] has an IC50 of under 0.25 µM.
